Laboratory results: PMC4904371, “Luteolin inhibits GABAA receptors in HEK cells and brain slices” (Scientific Reports, 2016)

Assays:
[1] = target: T1, α1β2 GABAAR (Rattus norvegicus, UniProt P62813+P63138); assay: whole-cell patch clamp, inhibition of GABA-evoked current; format: cell-based
T1 construct: gene Gabra1; full-length subunits in pcDNA3.1, co-transfected in HEK293T cells; GFP as separate marker; pentamer

[2] = target: T2, α5β2 GABAAR (Rattus norvegicus, UniProt P19969+P63138); assay: as above; format: cell-based
T2 construct: gene Gabra5; full-length subunits in pcDNA3.1, co-transfected in HEK293T cells; GFP as separate marker; pentamer
T2 sequence (P19969 26-464): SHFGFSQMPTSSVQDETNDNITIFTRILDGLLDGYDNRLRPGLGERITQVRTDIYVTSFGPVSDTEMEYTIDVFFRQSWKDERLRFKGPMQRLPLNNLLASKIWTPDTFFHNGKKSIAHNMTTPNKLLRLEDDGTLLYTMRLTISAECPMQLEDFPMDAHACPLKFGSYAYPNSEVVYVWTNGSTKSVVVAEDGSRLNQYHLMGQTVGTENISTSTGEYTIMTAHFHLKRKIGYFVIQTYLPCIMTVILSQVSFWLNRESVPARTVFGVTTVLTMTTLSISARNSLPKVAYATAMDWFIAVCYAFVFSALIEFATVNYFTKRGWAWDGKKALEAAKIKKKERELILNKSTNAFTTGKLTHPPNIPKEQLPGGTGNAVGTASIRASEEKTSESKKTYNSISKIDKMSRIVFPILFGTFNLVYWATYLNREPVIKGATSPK
T2 sequence (P63138 26-474): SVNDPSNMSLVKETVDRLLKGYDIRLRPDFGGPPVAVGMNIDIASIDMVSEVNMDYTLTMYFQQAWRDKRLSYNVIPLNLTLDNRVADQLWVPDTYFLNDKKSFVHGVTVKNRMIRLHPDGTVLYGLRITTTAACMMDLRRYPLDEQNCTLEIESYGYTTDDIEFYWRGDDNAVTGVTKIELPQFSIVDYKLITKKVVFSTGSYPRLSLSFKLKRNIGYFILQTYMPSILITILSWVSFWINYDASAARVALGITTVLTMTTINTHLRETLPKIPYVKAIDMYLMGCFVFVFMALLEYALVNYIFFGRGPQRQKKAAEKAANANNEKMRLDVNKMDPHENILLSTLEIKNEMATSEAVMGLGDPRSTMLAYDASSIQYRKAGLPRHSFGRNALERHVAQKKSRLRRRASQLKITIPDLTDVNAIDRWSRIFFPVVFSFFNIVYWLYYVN

T1 sequence (P62813 28-455): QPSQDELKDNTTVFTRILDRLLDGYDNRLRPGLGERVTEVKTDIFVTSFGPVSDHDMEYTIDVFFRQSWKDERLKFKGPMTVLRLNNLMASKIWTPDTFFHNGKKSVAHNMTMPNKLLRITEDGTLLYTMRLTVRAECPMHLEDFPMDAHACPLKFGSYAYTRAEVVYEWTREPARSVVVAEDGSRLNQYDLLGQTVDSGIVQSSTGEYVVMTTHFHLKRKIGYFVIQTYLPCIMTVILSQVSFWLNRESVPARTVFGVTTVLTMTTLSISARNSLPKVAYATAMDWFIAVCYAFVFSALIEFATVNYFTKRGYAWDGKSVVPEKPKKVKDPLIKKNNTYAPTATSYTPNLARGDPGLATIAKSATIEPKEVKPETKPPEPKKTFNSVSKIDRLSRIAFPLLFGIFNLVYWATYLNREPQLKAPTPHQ
T1 sequence (P63138 26-474): as the sequence (P63138 26-474) above

IC50 [1]: 10.8 ± 4.46 µM | IC50 [2]: 25.4 ± 9 µM
Compound: O=c1cc(-c2ccc(O)c(O)c2)oc2cc(O)cc(O)c12 [luteolin, 2-(3,4-Dihydroxyphenyl)-5,7-dihydroxy-4-chromenone]
